The values that follow come from patent publication US9512120B2, “Microbicidally active imidazopyridine derivatives” (Syngenta Participations AG, priority 2013, dated 2016).

The subject of one data set is Plasmopara viticola. Nature of the data set: Plasmopara viticola / grape / leaf disc preventative. It counts as in vivo. To be noted: foliar, grape vine leaf disks, inoculated 1 day after application, assessed 6-8 days after application, read-out: control of Plasmopara viticola (percent disease control compared to untreated).
The test system of data set [1] is Puccinia recondita f. sp. Tritici. Nature of the data set: Puccinia recondita f. sp. tritici / wheat / leaf disc preventative (brown rust). To be noted: foliar, wheat leaf segments cv Kanzler, inoculated 1 day after application, assessed 7-9 days after application, read-out: control of Puccinia recondita f. sp. Tritici (percent disease control compared to untreated). The data set is classed as in vivo. The method, boiled down: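 Leaf segments of wheat cv Kanzler on agar were sprayed with formulated compound at 200 ppm and inoculated with spores 1 day later. Incubation was at 19° C, 75% relative humidity and 12/12 h light/dark. Activity was scored 7-9 days after application as percent disease control versus untreated.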

Data set [2] deals with Phaeosphaeria nodorum (Septoria nodorum). The data set is described as follows: Phaeosphaeria nodorum (Septoria nodorum) / wheat / leaf disc preventative (glume blotch). The data set is classed as in vivo. To be noted: Parastagonospora nodorum, foliar, wheat leaf segments cv Kanzler, inoculated 2 days after application, assessed 5-7 days after application, read-out: control of Phaeosphaeria nodorum (percent disease control compared to untreated). The procedure, abridged:
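Wheat leaf segments (cv Kanzler) on agar sprayed with compound at 200 ppm, inoculated with spores 2 days later. Incubated at 20° C., 75% relative humidity, 12/12 h light/dark; percent disease control versus untreated scored 5-7 days after application.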

The test system of the next data set is Pyrenophora teres. The data set is described as follows: Pyrenophora teres / barley / leaf disc preventative (net blotch). The data set is classed as in vivo. The conditions noted are these: foliar, barley leaf segments cv Hasso, inoculated two days after application, assessed 5-7 days after application, read-out: control of Pyrenophora teres (disease control compared to untreated). The procedure, abridged: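 Barley cv Hasso leaf segments on agar sprayed with compound at 200 ppm, inoculated with spores two days later. Kept at 20 °C, 65% RH, 12/12 h light; disease control versus untreated scored 5-7 days after application.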

Data set [3] has as its system Botryotinia fuckeliana (Botrytis cinerea). The data set is described as follows: Botryotinia fuckeliana (Botrytis cinerea) / liquid culture (gray mould). The data set is classed as cell-based. The conditions noted are these: Vogels broth, 24° C., 3-4 days after application, read-out: control of Botryotinia fuckeliana (inhibition of growth, photometric). The procedure, abridged:
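Botrytis cinerea conidia in Vogels broth were added to test compound applied from DMSO at 200 ppm. Incubation at 24 °C; growth inhibition read photometrically 3-4 days after application.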

In data set [4] the test system is Mycosphaerella arachidis (Cercospora arachidicola). Nature of the data set: Mycosphaerella arachidis (Cercospora arachidicola) / liquid culture (early leaf spot). It counts as cell-based. The conditions noted are these: PDB, 24° C., 4-5 days after application, read-out: control of Mycosphaerella arachidis (inhibition of growth, photometric). The method, boiled down:
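Conidia suspended in potato dextrose broth and added to test compound from DMSO solution at 200 ppm. Incubated at 24 °C; growth inhibition read photometrically 4-5 days after application.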

The subject of data set [5] is Mycosphaerella graminicola (Septoria tritici). Nature of the data set: Mycosphaerella graminicola (Septoria tritici) / liquid culture (Septoria blotch). The data set is classed as cell-based. To be noted: Zymoseptoria tritici, PDB, 24° C., 4-5 days after application, read-out: control of Mycosphaerella graminicola (inhibition of growth, photometric). The method, boiled down: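 Cryo-stored conidia in potato dextrose broth were added to compound in DMSO at 200 ppm in microtiter plates. Plates were incubated at 24 °C and growth inhibition was measured photometrically 4–5 days after application.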

Another data set relates to Gaeumannomyces graminis. The data set is described as follows: Gaeumannomyces graminis / liquid culture (take-all of cereals). The data set is classed as cell-based. The conditions noted are these: PDB, 24° C., 4-5 days after application, read-out: control of Gaeumannomyces graminis (inhibition of growth, photometric). The method, boiled down: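 Mycelial fragments in potato dextrose broth were exposed to compound from DMSO at 200 ppm in microtiter plates. Incubation at 24 °C; growth inhibition read photometrically 4-5 days after application.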

Data set [6] concerns Thanatephorus cucumeris (Rhizoctonia solani). The data set is described as follows: Thanatephorus cucumeris (Rhizoctonia solani) / liquid culture (foot rot, damping-off). The conditions noted are these: PDB, 24° C., 3-4 days after application, read-out: control of Thanatephorus cucumeris (inhibition of growth, photometric). The data set is classed as cell-based. The method, boiled down:
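Mycelial fragments in potato dextrose broth exposed to test compounds at 200 ppm (from DMSO solution), incubated at 24° C. Growth inhibition read photometrically 3-4 days after application.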

In data set [7] the test system is Monographella nivalis (Microdochium nivale). The data set is described as follows: Monographella nivalis (Microdochium nivale) / liquid culture (foot rot cereals). It counts as cell-based. The conditions noted are these: PDB, 24° C., 4-5 days after application, read-out: control of Monographella nivalis (inhibition of growth, photometric). The procedure, abridged: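 Cryostored conidia in potato dextrose broth were added to test compound dispensed from DMSO at 200 ppm. Plates were kept at 24° C, and growth inhibition was read photometrically 4-5 days after application.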

A further data set relates to Fusarium culmorum. The data set is described as follows: microbe, parasite or virus in culture. It counts as cell-based. To be noted: read-out: control of Fusarium culmorum (inhibition of growth, photometric).
The subject of the next data set is Sclerotinia sclerotiorum. The data set is described as follows: Sclerotinia sclerotiorum liquid culture (cottony rot / white mold). The data set is classed as cell-based. To be noted: PDB, 24° C., 3-4 days after application, read-out: control of Sclerotinia sclerotiorum (inhibition of growth, photometric). The method, boiled down: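 Mycelia fragments of Sclerotinia sclerotiorum in potato dextrose broth were added to compound in DMSO. Cultures incubated at 24° C; growth inhibition determined photometrically 3-4 days after application.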

For data set [8], the system named is Glomerella lagenarium (Colletotrichum lagenarium). Nature of the data set: Glomerella lagenarium (Colletotrichum lagenarium) / liquid culture (anthracnose). It counts as cell-based. The conditions noted are these: Colletotrichum orbiculare, PDB, 24° C., 3-4 days after application, read-out: control of Glomerella lagenarium (inhibition of growth, photometric). The procedure, abridged: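 Cryopreserved conidia suspended in potato dextrose broth were added to compound in DMSO applied at 200 ppm. Plates incubated at 24° C; growth inhibition read photometrically 3-4 days after application.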

For a further data set, the system named is Pythium ultimum. Nature of the data set: Pythium ultimum / liquid culture (seedling damping off). The conditions noted are these: Globisporangium ultimum, potato dextrose broth, 24° C., 2-3 days after application, read-out: control of Pythium ultimum (inhibition of growth, photometric). It counts as cell-based. As for the experimental part: Pythium ultimum/Liquid Culture (Seedling Damping Off) Mycelia fragments and oospores of a newly grown liquid culture of the fungus were directly mixed into nutrient broth (potato dextrose broth). After placing a DMSO solution of test compound into a 96-well format microtiter plate at an application rate of 200 ppm, the nutrient broth containing the fungal mycelia/spore mixture was added. The test plates were incubated at 24° C. and the inhibition of growth was determined photometrically 2-3 days after application.

Broadly, the inhibition is how much of the control response was suppressed. For `CCCn1c(-n2ncnc2N)nc2cncc(/C(C)=N\OC/C=C(\C)Cl)c21` [Compound 184], the pest or weed control at 200 ppm (in the data set with Plasmopara viticola; in data set [1]; in data set [2]; in the data set with Pyrenophora teres) was at least 80% in each case. The inhibition at 20 ppm (in data set [3]; in data set [4]; in [5]; in the data set with Gaeumannomyces graminis; in [6]; in data set [7]) was at least 80% each time. Moreover, the inhibition at 20 ppm in the data set with Fusarium culmorum and in the data set with Sclerotinia sclerotiorum was at least 80% throughout.
One may read the melting point as the temperature, or range, at which the solid turns liquid. Take `CCn1c(-n2ncnc2N)nc2cncc(Br)c21` [Compound 15, 2-(7-bromo-1-ethylimidazo[4,5-c]pyridin-2-yl)-1,2,4-triazol-3-amine]: the melting point lay in the range of 231 to 232 °C. For the same compound, the pest or weed control at 200 ppm in data set [1] is at least 80%. Moreover, the pest or weed control at 200 ppm in [2] was at least 80%. Also, the pest or weed control at 200 ppm with Pyrenophora teres is at least 80%. The inhibition at 20 ppm in data set [3] is at least 80%. Moreover, the inhibition at 20 ppm in data set [8] is at least 80%. For the same compound, in data set [4], the inhibition at 20 ppm is at least 80%. In [5], the inhibition at 20 ppm was at least 80%. Further, the inhibition at 20 ppm in the data set on Gaeumannomyces graminis is at least 80%. Moreover, the inhibition at 20 ppm in [6] was at least 80%. For the same compound, the inhibition at 20 ppm in data set [7] was at least 80%. Further, in the data set with Fusarium culmorum, the inhibition at 20 ppm was at least 80%. The inhibition at 20 ppm in the data set with Sclerotinia sclerotiorum is at least 80%.
Take `C=C(C)CO/N=C(/C)c1cncc2nc(-n3ncnc3N)n(CC)c12` [Compound 178]: the pest or weed control at 200 ppm (in the data set with Plasmopara viticola; in data set [1]; in the data set with Pyrenophora teres) was at least 80% throughout. Further, the inhibition at 20 ppm (in data set [3]; in data set [4]; in data set [5]; in the data set with Gaeumannomyces graminis; in data set [6]; in data set [7]) was at least 80% throughout. For the same compound, the inhibition at 20 ppm with Fusarium culmorum and in the data set on Sclerotinia sclerotiorum was at least 80% in each case.
Consider `CCCn1c(-n2ncnc2N)nc2cncc(/C(C)=N\OC/C=C/Cl)c21` [Compound 182], for which the pest or weed control at 200 ppm (with Plasmopara viticola; in [1]; in [2]; in the data set with Pyrenophora teres) was at least 80% in each case. Also, the inhibition at 20 ppm (in data set [3]; in data set [4]; in data set [5]; in [6]; in data set [7]; with Fusarium culmorum) was at least 80% in each case. Moreover, the inhibition at 20 ppm in the data set on Sclerotinia sclerotiorum is at least 80%.
For `C=C(OCC)c1cncc2nc(-n3ncnc3N)n(CC)c12` [Compound 74, 2-[7-(1-ethoxyethenyl)-1-ethylimidazo[4,5-c]pyridin-2-yl]-1,2,4-triazol-3-amine], the melting point lay within 193 to 195 °C. The pest or weed control at 200 ppm in data set [1] is at least 80%. In [2], the pest or weed control at 200 ppm was at least 80%. Further, the pest or weed control at 200 ppm in the data set on Pyrenophora teres was at least 80%. The inhibition at 20 ppm in data set [3] is at least 80%. Besides, in data set [8], the inhibition at 20 ppm is at least 80%. The inhibition at 20 ppm in [4] was at least 80%. Moreover, the inhibition at 20 ppm in data set [5] is at least 80%. In addition, the inhibition at 20 ppm in the data set on Gaeumannomyces graminis was at least 80%. In addition, the inhibition at 20 ppm in data set [6] is at least 80%. Besides, the inhibition at 20 ppm in data set [7] was at least 80%. Moreover, the inhibition at 20 ppm in the data set on Fusarium culmorum was at least 80%. In the data set on Sclerotinia sclerotiorum, the inhibition at 20 ppm is at least 80%.
`C=Cc1cncc2nc(-n3ncnc3N)n(CC)c12` [Compound 106, 2-(7-ethenyl-1-ethylimidazo[4,5-c]pyridin-2-yl)-1,2,4-triazol-3-amine] returned a melting point of 178 to 186 °C. Besides, the pest or weed control at 200 ppm in the data set with Pyrenophora teres is at least 80%. Moreover, the inhibition at 20 ppm in data set [3] was at least 80%. Also, the inhibition at 20 ppm in data set [4] is at least 80%. Also, the inhibition at 20 ppm in data set [5] was at least 80%. Further, the inhibition at 20 ppm in the data set with Gaeumannomyces graminis was at least 80%. In addition, the inhibition at 20 ppm in data set [6] is at least 80%. In [7], the inhibition at 20 ppm was at least 80%. Besides, in the data set with Pythium ultimum, the inhibition at 20 ppm is at least 80%. Also, the inhibition at 20 ppm in the data set with Fusarium culmorum was at least 80%. Besides, the inhibition at 20 ppm in the data set with Sclerotinia sclerotiorum is at least 80%.
For the compound `CCn1c(-n2ncnc2N)nc2cncc(-c3ccc(F)cc3Cl)c21` [Compound 101, 2-[7-(2-chloro-4-fluorophenyl)-1-ethylimidazo[4,5-c]pyridin-2-yl]-1,2,4-triazol-3-amine], the pest or weed control at 200 ppm (in data set [1]; in data set [2]; in the data set on Pyrenophora teres) was at least 80% each time. Further, the inhibition at 20 ppm (in data set [3]; in data set [8]; in data set [4]; in data set [5]; in the data set with Gaeumannomyces graminis; in data set [6]) was at least 80% throughout. Also, the inhibition at 20 ppm (in [7]; in the data set on Pythium ultimum; with Fusarium culmorum; with Sclerotinia sclerotiorum) was at least 80% throughout.
Compound `CCn1c(-n2ncnc2N)nc2cncc(C#CC3CC3)c21` [Compound 123, 2-[7-(2-cyclopropylethynyl)-1-ethylimidazo[4,5-c]pyridin-2-yl]-1,2,4-triazol-3-amine] displayed a melting point of 188 to 192 °C. For the same compound, the pest or weed control at 200 ppm in [1] was at least 80%. Also, the pest or weed control at 200 ppm in data set [2] is at least 80%. The pest or weed control at 200 ppm in the data set on Pyrenophora teres is at least 80%. Besides, the inhibition at 20 ppm in data set [3] is at least 80%. In addition, in [8], the inhibition at 20 ppm is at least 80%. Besides, in data set [4], the inhibition at 20 ppm is at least 80%. Moreover, the inhibition at 20 ppm in data set [5] is at least 80%. Also, the inhibition at 20 ppm in the data set with Gaeumannomyces graminis is at least 80%. Further, the inhibition at 20 ppm in data set [6] was at least 80%. Besides, in data set [7], the inhibition at 20 ppm was at least 80%. Besides, the inhibition at 20 ppm with Fusarium culmorum was at least 80%. Further, the inhibition at 20 ppm in the data set with Sclerotinia sclerotiorum is at least 80%.
Consider `CCn1c(-n2ncnc2N)nc2cncc(-c3ccc(OC)cc3F)c21` [Compound 96, 2-[1-ethyl-7-(2-fluoro-4-methoxyphenyl)imidazo[4,5-c]pyridin-2-yl]-1,2,4-triazol-3-amine], for which the pest or weed control at 200 ppm (in data set [1]; in [2]; in the data set on Pyrenophora teres) was at least 80% throughout. The inhibition at 20 ppm (in data set [3]; in [8]; in data set [5]; in the data set with Gaeumannomyces graminis; in data set [6]; in data set [7]) was at least 80% in each case. The inhibition at 20 ppm with Pythium ultimum, in the data set with Fusarium culmorum and in the data set on Sclerotinia sclerotiorum was at least 80% in each case.
